Results published in publication PMC5713249, “PeaTAR1B: Characterization of a Second Type 1 Tyramine Receptor of the American Cockroach, Periplaneta americana” (International Journal of Molecular Sciences, 2017).

Experiments:
PeaTAR1B (PeaTAR1B-HA) [1] = biological target: T1, PeaTAR1B (PeaTAR1B-HA) (Periplaneta americana, UniProt A0A239QQ38); assay: attenuation of NKH 477-stimulated cAMP, CNG channel / Fluo-4 Ca2+ fluorescence in HEK […] flpTM cells; assay type: cell-based
T1 construct: stably expressed in HEK 293 flpTM cells
T1 sequence (A0A239QQ38 1-481): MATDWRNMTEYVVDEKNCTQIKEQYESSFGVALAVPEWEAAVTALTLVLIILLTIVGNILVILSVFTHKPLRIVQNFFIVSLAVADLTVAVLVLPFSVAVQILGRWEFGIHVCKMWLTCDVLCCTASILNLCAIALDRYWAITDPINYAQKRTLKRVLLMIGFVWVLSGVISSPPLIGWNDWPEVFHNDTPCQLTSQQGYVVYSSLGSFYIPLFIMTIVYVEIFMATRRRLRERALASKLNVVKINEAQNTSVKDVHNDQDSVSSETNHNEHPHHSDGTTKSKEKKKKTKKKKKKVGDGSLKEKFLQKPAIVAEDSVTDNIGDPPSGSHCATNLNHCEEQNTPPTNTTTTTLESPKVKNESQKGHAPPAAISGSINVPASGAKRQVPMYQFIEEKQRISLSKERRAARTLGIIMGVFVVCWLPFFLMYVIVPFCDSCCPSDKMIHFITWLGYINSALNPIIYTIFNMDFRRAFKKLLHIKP

PeaTAR1B (PeaTAR1B-HA) [2] = biological target: T1, PeaTAR1B (PeaTAR1B-HA); assay: block of tyramine-induced attenuation of NKH 477-stimulated cAMP, CNG channel / Fluo-4 fluorescence in HEK […] flpTM cells; assay type: cell-based

| SMILES | EC50 (PeaTAR1B (PeaTAR1B-HA) [1]) [nM] | IC50 (PeaTAR1B (PeaTAR1B-HA) [2]) [nM] |
| --- | --- | --- |
| NCCc1ccc(O)cc1 [tyramine] | ~6.3 |  |
| COC(=O)[C@@H]1[C@H]2C[C@H]3c4[nH]c5ccccc5c4CCN3C[C@@H]2CC[C@@H]1O [yohimbine] |  | 740 |
